In US8153653B2, “Amido-tropane derivatives” (Hoffmann-La Roche Inc., priority 2010, dated 2012):

Target: T1, mGlyT-1b (Mus musculus, UniProt P28571)
T1 construct: host or cells: Flp-in-CHO cells, stably transfected
T1 sequence (P28571 1-651 isoform P28571-2): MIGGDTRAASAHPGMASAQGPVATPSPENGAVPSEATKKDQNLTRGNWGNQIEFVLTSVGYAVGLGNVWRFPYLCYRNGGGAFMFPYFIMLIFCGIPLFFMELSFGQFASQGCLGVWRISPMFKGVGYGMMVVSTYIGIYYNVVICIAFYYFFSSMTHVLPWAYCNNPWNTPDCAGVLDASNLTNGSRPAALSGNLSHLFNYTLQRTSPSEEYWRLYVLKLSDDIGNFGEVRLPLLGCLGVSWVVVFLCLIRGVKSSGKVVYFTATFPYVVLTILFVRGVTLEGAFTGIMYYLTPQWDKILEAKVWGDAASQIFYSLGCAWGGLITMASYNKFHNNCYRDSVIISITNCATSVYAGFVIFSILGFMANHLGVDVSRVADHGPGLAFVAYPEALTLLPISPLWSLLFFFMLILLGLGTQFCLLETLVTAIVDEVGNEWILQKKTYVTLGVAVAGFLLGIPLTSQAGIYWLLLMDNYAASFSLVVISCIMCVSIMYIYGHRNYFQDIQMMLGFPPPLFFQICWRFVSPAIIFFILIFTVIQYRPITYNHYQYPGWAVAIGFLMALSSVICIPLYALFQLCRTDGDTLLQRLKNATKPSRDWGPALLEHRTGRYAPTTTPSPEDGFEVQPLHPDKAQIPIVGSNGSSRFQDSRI
Assay: Glycine Uptake Inhibition Assay (mGlyT-1b)
Type: cell-based
Details: [3H]-glycine uptake in Flp-in-CHO cells stably transfected with mGlyT-1b cDNA; 20 min preincubation at 22° C.
Procedure: DMEM complete medium: Nutrient mixture F-12 (Gibco Life-technologies), fetal bovine serum (FBS) 5%, (Gibco life technologies), Penicillin/Streptomycin 1% (Gibco life technologies), Hygromycin 0.6 mg/ml (Gibco life technologies), Glutamine 1 mM Gibco life technologies) Uptake buffer (UB): 150 mM NaCl, 10 mM Hepes-Tris, pH 7.4, 1 mM CaCl2, 2.5 mM KCl, 2.5 mM MgSO4, 10 mM (+) D-glucose. Flp-in™-CHO (Invitrogen Cat n° R758-07) cells stably transfected with mGlyT1b cDNA.
Glycine Uptake Inhibition Assay (mGlyT-1b)
On day 1 mammalian cells, (Flp-in™-CHO), transfected with mGlyT-1b cDNA, were plated at the density of 40,000 cells/well in complete F-12 medium, without hygromycin in 96-well culture plates. On day 2, the medium was aspirated and the cells were washed twice with uptake buffer (UB). The cells were then incubated for 20 min at 22° C. with either (i) no potential competitor, (ii) 10 mM non-radioactive glycine, (iii) a concentration of a potential inhibitor. A range of concentrations of the potential inhibitor was used to generate data for calculating the concentration of inhibitor resulting in 50% of the effect (e.g. IC50, the concentration of the competitor inhibiting glycine uptake of 50%). A solution was then immediately added containing [^3H]-glycine 60 nM (11-16 Ci/mmol) and 25 μM non-radioactive glycine. The plates were incubated with gentle shaking and the reaction was stopped by aspiration of the mixture and washing (three times) with ice-cold UB. The cells were lysed with scintillation liquid, shaken 3 hours and the radioactivity in the cells was counted using a scintillation counter.

COc1cc(C(F)(F)F)cc(SC)c1C(=O)N[C@@]1(c2ccccc2)CC[C@@H]2CC[C@H]1N2C (racemic) [Example 1, 2-Methoxy-N-((1RS,2RS,5SR)-8-methyl-2-phenyl-8-aza-bicyclo[3.2.1]oct-2-yl)-6-methylsulfanyl-4-trifluoromethyl-benzamide]
IC50: 14 nM

COc1cc(C(F)(F)F)cc(C2CC2)c1C(=O)N[C@]1(c2ccccc2)CC[C@H]2CC[C@@H]1N2C (stereo in doubt) [Example 11, 2-Cyclopropyl-6-methoxy-N-((1S,2S,5R) or (lR,2R.5S)-8-methyl-2-phenyl-8-aza-bicyclo[3.2.1]oct-2-yl)-4-trifluoromethyl-benzamide]
IC50: 6 nM

COc1cc(C(F)(F)F)cc(C)c1C(=O)N[C@@]1(c2ccccc2)CC[C@@H]2CC[C@H]1N2C (stereo in doubt) [Example 7, 2-Methoxy-6-methyl-N-((1RS,2RS,5SR)-8-methyl-2-phenyl-8-aza-bicyclo[3.2.1]oct-2-yl)-4-trifluoromethyl-benzamide]
IC50: 6 nM

CCc1cc(C(F)(F)F)cc(OC)c1C(=O)N[C@@]1(c2ccccc2)CC[C@@H]2CC[C@H]1N2C (racemic) [Example 13, 2-Ethyl-6-methoxy-N-((1RS,2RS,5SR)-8-methyl-2-phenyl-8-aza-bicyclo[3.2.1]oct-2-yl)-4-trifluoromethyl-benzamide]
IC50: 14 nM

COc1cc(C(F)(F)F)cc(C)c1C(=O)N[C@@]1(c2ccccc2)CC[C@@H]2CC[C@H]1N2C (stereo in doubt) [Example 9, 2-Methoxy-6-methyl-N-((1R,2R,5S) or (1S,2S,5R)-8-methyl-2-phenyl-8-aza-bicyclo[3.2.1]oct-2-yl)-4-trifluoromethyl-benzamide]
IC50: 20 nM

CCc1cc(C(F)(F)F)ccc1C(=O)N[C@@]1(c2ccccc2)CC[C@@H]2CC[C@H]1N2C (stereo in doubt) [Example 6, 2-Ethyl-N-((1R,2R,5S) or (1S,2S,5R)-8-methyl-2-phenyl-8-aza-bicyclo[3.2.1]oct-2-yl)-4-trifluoromethyl-benzamide]
IC50: 31 nM

CN1[C@H]2CC[C@@H]1[C@](NC(=O)c1ccc(C(F)(F)F)cc1C1CC1)(c1ccccc1)CC2 (racemic) [Example 4, 2-Cyclopropyl-N-((1RS,2RS,5SR)-8-methyl-2-phenyl-8-aza-bicyclo[3.2.1]oct-2-yl)-4-trifluoromethyl-benzamide]
IC50: 8 nM

COc1cc(C(F)(F)F)cc(C2CC2)c1C(=O)N[C@@]1(c2ccccc2)CC[C@@H]2CC[C@H]1N2C (stereo in doubt) [Example 10, 2-Cyclopropyl-6-methoxy-N-((1RS,2RS,5SR)-8-methyl-2-phenyl-8-aza-bicyclo[3.2.1]oct-2-yl)-4-trifluoromethyl-benzamide]
IC50: 4 nM

COc1cc(C(F)(F)F)cc(SC)c1C(=O)N[C@]1(c2ccccc2)CC[C@H]2CC[C@@H]1N2C [Example 2, 2-Methoxy-N-((1S,2S,5R)-8-methyl-2-phenyl-8-aza-bicyclo[3.2.l]oct-2-yl)-6-methylsulfanyl-4-trifluoromethyl-benzamide]
IC50: 21 nM

COc1cc(C(F)(F)F)cc(SC)c1C(=O)N[C@@]1(c2ccccc2)CC[C@@H]2CC[C@H]1N2C (racemic) [Example 3, 2-Methoxy-N-((1R,2R,5S)-8-methyl-2-phenyl-8-aza-bicyclo[3.2.1]oct-2-yl)-6-methylsulfanyl-4-trifluoromethyl-benzamide]
IC50: 8 nM

COc1cc(C(F)(F)F)cc(C2CC2)c1C(=O)N[C@@]1(c2ccccc2)CC[C@@H]2CC[C@H]1N2C (stereo in doubt) [Example 12, 2-Cyclopropyl-6-methoxy-N-((1R,2R,5S) or (1S,2S,5R)-8-methyl-2-phenyl-8-aza-bicyclo[3.2.1]oct-2-yl)-4-trifluoromethyl-benzamide]
IC50: 6 nM

COc1cc(C(F)(F)F)cc(C)c1C(=O)N[C@]1(c2ccccc2)CC[C@H]2CC[C@@H]1N2C (stereo in doubt) [Example 8, 2-Methoxy-6-methyl-N-((1S,2S,5R) or (1R,2R,5S)-8-methyl-2-phenyl-8-aza-bicyclo[3.2.1]oct-2-yl)-4-trifluoromethyl-benzamide]
IC50: 20 nM

CCc1cc(C(F)(F)F)ccc1C(=O)N[C@]1(c2ccccc2)CC[C@H]2CC[C@@H]1N2C (stereo in doubt) [Example 5, 2-Ethyl-N-((1S,2S,5R) or (1R,2R,5S)-8-methyl-2-phenyl-8-aza-bicyclo[3.2.1]oct-2-yl)-4-trifluoromethyl-benzamide]
IC50: 19 nM
